PubChem BioAssay (NCI)
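Five concentrations, 48 hours, 96-well plates. Definition used: TGI = concentration required for complete inhibition of growth.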

Legend:
Experiment in all cases: NCI tumour cell line growth inhibition, 48 h
SR leukemia = system: SR leukemia
K-562 leukemia = system: K-562 leukemia
SF-268 CNS = system: SF-268 CNS
786-0 renal = system: 786-0 renal
MCF7 breast = system: MCF7 breast
HCT-116 colon = system: HCT-116 colon
SF-539 CNS = system: SF-539 CNS
OVCAR-8 ovarian = system: OVCAR-8 ovarian
NCI-H522 lung = system: NCI-H522 lung
RXF 393 renal = system: RXF 393 renal
OVCAR-4 ovarian = system: OVCAR-4 ovarian
M14 melanoma = system: M14 melanoma
KM12 colon = system: KM12 colon
NCI/ADR-RES ovarian = system: NCI/ADR-RES ovarian
HCT-15 colon = system: HCT-15 colon
UACC-62 melanoma = system: UACC-62 melanoma
IGROV1 ovarian = system: IGROV1 ovarian
MDA-MB-435 = system: MDA-MB-435
SK-MEL-2 melanoma = system: SK-MEL-2 melanoma
MALME-3M melanoma = system: MALME-3M melanoma
T-47D breast = system: T-47D breast
HOP-92 NSCLC = system: HOP-92 NSCLC
SN12C renal = system: SN12C renal
HS 578T breast = system: HS 578T breast
HL-60(TB) leukemia = system: HL-60(TB) leukemia
PC-3 prostate = system: PC-3 prostate
SK-MEL-28 melanoma = system: SK-MEL-28 melanoma
HOP-62 NSCLC = system: HOP-62 NSCLC
MDA-MB-231 breast = system: MDA-MB-231 breast
HT29 colon = system: HT29 colon
ACHN renal = system: ACHN renal
MDA-N = system: MDA-N
EKVX NSCLC = system: EKVX NSCLC
A498 renal = system: A498 renal
CAKI-1 renal = system: CAKI-1 renal
SK-MEL-5 melanoma = system: SK-MEL-5 melanoma
SK-OV-3 ovarian = system: SK-OV-3 ovarian
CCRF-CEM leukemia = system: CCRF-CEM leukemia
RPMI-8226 leukemia = system: RPMI-8226 leukemia
SNB-75 CNS = system: SNB-75 CNS
BT-549 breast = system: BT-549 breast
NCI-H23 lung = system: NCI-H23 lung
NCI-H460 lung = system: NCI-H460 lung
OVCAR-5 ovarian = system: OVCAR-5 ovarian
OVCAR-3 ovarian = system: OVCAR-3 ovarian
UACC-257 melanoma = system: UACC-257 melanoma
COLO 205 colon = system: COLO 205 colon
A549 NSCLC = system: A549 NSCLC
MOLT-4 leukemia = system: MOLT-4 leukemia
TK-10 renal = system: TK-10 renal
SNB-19 CNS = system: SNB-19 CNS
DU-145 prostate = system: DU-145 prostate
SF-295 CNS = system: SF-295 CNS
U251 CNS = system: U251 CNS
SW-620 colon = system: SW-620 colon
LOX IMVI melanoma = system: LOX IMVI melanoma
NCI-H226 lung = system: NCI-H226 lung

COc1ccc(C(=O)N/N=C2\C(=O)c3c(C)cc(C)cc3CC2(C)C)cc1
TGI (SR leukemia): 47.9 µM | TGI (K-562 leukemia): 64.7 µM | TGI (SF-268 CNS): 42.9 µM | TGI (786-0 renal): 36.1 µM | TGI (MCF7 breast): 36.4 µM | TGI (HCT-116 colon): 32.1 µM | TGI (SF-539 CNS): 46 µM | TGI (OVCAR-8 ovarian): 56.6 µM | TGI (NCI-H522 lung): 33.6 µM | TGI (RXF 393 renal): 32.6 µM | TGI (OVCAR-4 ovarian): > 100 µM | TGI (M14 melanoma): 38.8 µM | TGI (KM12 colon): 39.9 µM | TGI (NCI/ADR-RES ovarian): 80.6 µM | TGI (HCT-15 colon): 64.3 µM | TGI (UACC-62 melanoma): 31.6 µM | TGI (IGROV1 ovarian): 41.5 µM | TGI (MDA-MB-435): 35.1 µM | TGI (SK-MEL-2 melanoma): 36.2 µM | TGI (MALME-3M melanoma): 31.6 µM | TGI (T-47D breast): 40.4 µM | TGI (HOP-92 NSCLC): 31.3 µM | TGI (SN12C renal): 37.2 µM | TGI (HS 578T breast): 41.9 µM | TGI (HL-60(TB) leukemia): 51.5 µM | TGI (PC-3 prostate): 47.7 µM | TGI (SK-MEL-28 melanoma): 42.2 µM | TGI (HOP-62 NSCLC): 37.4 µM | TGI (MDA-MB-231 breast): 56.1 µM | TGI (HT29 colon): 36.9 µM | TGI (ACHN renal): 58.7 µM | TGI (MDA-N): 39.3 µM | TGI (EKVX NSCLC): 70.1 µM | TGI (A498 renal): 42.4 µM | TGI (CAKI-1 renal): > 100 µM | TGI (SK-MEL-5 melanoma): 31.9 µM | TGI (SK-OV-3 ovarian): > 100 µM | TGI (CCRF-CEM leukemia): 65.6 µM | TGI (RPMI-8226 leukemia): 57.5 µM | TGI (SNB-75 CNS): 56.5 µM | TGI (BT-549 breast): 36.2 µM | TGI (NCI-H23 lung): > 100 µM | TGI (NCI-H460 lung): 78.4 µM | TGI (OVCAR-5 ovarian): 55.5 µM | TGI (OVCAR-3 ovarian): 30.9 µM | TGI (UACC-257 melanoma): 98.5 µM | TGI (COLO 205 colon): 49.3 µM | TGI (A549 NSCLC): 44.2 µM | TGI (MOLT-4 leukemia): 37.3 µM | TGI (TK-10 renal): > 100 µM | TGI (SNB-19 CNS): 84 µM | TGI (DU-145 prostate): 63.8 µM | TGI (SF-295 CNS): 40.1 µM | TGI (U251 CNS): 31.9 µM | TGI (SW-620 colon): 84.2 µM | TGI (LOX IMVI melanoma): 34.2 µM | TGI (NCI-H226 lung): 45.7 µM
